This note sets out measurements from US7230104B2, “Fungicidal 5-phenyl substituted 2-(cyanoamino) pyrimidines” (priority 2000, dated 2007).

The test system of one test is Rhizoctonia solani. The note with it: 10 ppm; 3–7 days of incubation.
Another test concerns Venturia inaequalis. The test can be described thus: Evaluation of in vivo fungicidal activity, Apple Scab (AS). To be noted: plants sprayed with 200 ppm test solution, inoculated the same day.
The nature of test [1]: Evaluation of in vivo fungicidal activity, Grape downy mildew (GDM). Also noted: species or system Uniclnula necator. To be noted: plants sprayed with 200 ppm test solution, inoculated the same day.
For test [2], the system named is Pyricularia grisea sp. oryzae. It counts as in vivo. The note with it: Rice Blast; plants sprayed with 200 ppm test solution, inoculated the same day.
Another test deals with Pyricularia Oryzae. It counts as cell-based. To be noted: lowest concentration causing total inhibition of mycelial growth; 6–12 days incubation at 18 to 25° C.; visual inspection.

Values after ≈ are worked out from the molar mass of the structure shown.

Procedure for Rhizoctonia solani: After 3–7 days of incubation, inhibition of mycelial growth is recorded using the following scale: The data obtained are shown in Table VI.

For `CC(Nc1nc(N(C)C#N)nc(Cl)c1-c1c(F)cc(F)cc1F)C(F)(F)F` (centres unmarked) [Example 1, 2-(N-cyano-N-methylamino)-4-chloro-5-(2,4,6-trifluorophenul)-6-(1,1,1-trifluoroprop-2-ylamino)-pyrimidine], the “Rhizoctonia solani (Rice sheath blight) inhibition of mycelial growth rating” value with Rhizoctonia solani is on record as 7.

`CCCCN(C#N)c1nc(Cl)c(-c2c(F)cc(F)cc2F)c(NC(C)C(F)(F)F)n1` (centres unmarked) [Example 2]: the “AS disease control rating” value with Venturia inaequalis is 0 (0). The “GDM disease control rating” value in test [1] is 0 (0). In test [2], the “RB disease control rating” value is 0 (0).

Broadly, the MIC is the smallest concentration in the dilution series that meets the test's criterion for growth inhibition. With `CC(C)Nc1nc(N(C)C#N)nc(Cl)c1-c1c(F)cc(F)cc1F` [Example 3], the “AS disease control rating” value in the test with Venturia inaequalis was 7 (90–95). The MIC against Pyricularia Oryzae stood at 3.13 µg/mL (≈ 8.8 µM). In addition, the “GDM disease control rating” value in test [1] is reported as 7 (90–95). The “RB disease control rating” value in test [2] is given as 5 (60–74).

On to `CN(C#N)c1nc(Cl)c(-c2c(F)ccc(F)c2F)c(NC2CCCC2)n1` [Example 4], for which the “AS disease control rating” value in the test on Venturia inaequalis is listed as 5 (60–74). The MIC in the test with Pyricularia Oryzae is more than 100 µg/mL. Also, in test [1], the “GDM disease control rating” value is 3 (30–44). Also, the “Rhizoctonia solani (Rice sheath blight) inhibition of mycelial growth rating” value with Rhizoctonia solani stood at 7. Also, in test [2], the “RB disease control rating” value is recorded as 3 (30–44).

Consider `CC1CCN(c2nc(N(C)C#N)nc(Cl)c2-c2c(F)cccc2Cl)CC1` [Example 5], for which, in the test with Venturia inaequalis, the “AS disease control rating” value was 9 (100). In the test with Pyricularia Oryzae, the MIC stood at 25 µg/mL (≈ 63.4 µM). For the same compound, in test [1], the “GDM disease control rating” value was 0 (0). Besides, the “Rhizoctonia solani (Rice sheath blight) inhibition of mycelial growth rating” value with Rhizoctonia solani was found to be 0. Besides, the “RB disease control rating” value in test [2] was 4 (45–59).

`CCC(C)Nc1nc(N(C)C#N)nc(Cl)c1-c1c(F)cccc1Cl` (centres unmarked) [Example 6]: the “AS disease control rating” value in the test with Venturia inaequalis is on record as 9 (100). In addition, the minimum inhibitory concentration (MIC) with Pyricularia Oryzae is 6.25 µg/mL (≈ 17 µM). The “GDM disease control rating” value in test [1] was 3 (30–44). For the same compound, the “Rhizoctonia solani (Rice sheath blight) inhibition of mycelial growth rating” value in the test with Rhizoctonia solani worked out at 0. In test [2], the “RB disease control rating” value is given as 6 (75–89).

As to `CC1CCN(c2nc(N(C)C#N)nc(Cl)c2-c2c(F)cc(F)cc2F)CC1` [Example 7], the minimal inhibitory concentration (MIC) against Pyricularia Oryzae stood at 100 µg/mL (≈ 253 µM). Besides, the “Rhizoctonia solani (Rice sheath blight) inhibition of mycelial growth rating” value with Rhizoctonia solani was determined as 0.

Take `CC(N(C)c1nc(N(C)C#N)nc(Cl)c1-c1c(F)cc(F)cc1F)C(F)(F)F` (centres unmarked) [Example 8]: the “Rhizoctonia solani (Rice sheath blight) inhibition of mycelial growth rating” value in the test with Rhizoctonia solani amounted to 7.
